{
  "source": "paper PMC10353187",
  "about": "“Discovery of a new potent oxindole multi-kinase inhibitor among a series of designed 3-alkenyl-oxindoles with ancillary carbonic anhydrase inhibitory activity as antiproliferative agents” (BMC Chemistry, 2023)",
  "experiment_in_all_cases": "Z'-LYTE kinase inhibition assay (SelectScreen)",
  "format_in_all_cases": "biochemical",
  "key": {"[1]": {"target": "T1, PDGFRA (PDGFR alpha) (Homo sapiens, UniProt P16234)", "T1 construct": "purchased Thermo Fischer Scientific (SelectScreen service)", "T1 sequence (P16234 24-1089)": "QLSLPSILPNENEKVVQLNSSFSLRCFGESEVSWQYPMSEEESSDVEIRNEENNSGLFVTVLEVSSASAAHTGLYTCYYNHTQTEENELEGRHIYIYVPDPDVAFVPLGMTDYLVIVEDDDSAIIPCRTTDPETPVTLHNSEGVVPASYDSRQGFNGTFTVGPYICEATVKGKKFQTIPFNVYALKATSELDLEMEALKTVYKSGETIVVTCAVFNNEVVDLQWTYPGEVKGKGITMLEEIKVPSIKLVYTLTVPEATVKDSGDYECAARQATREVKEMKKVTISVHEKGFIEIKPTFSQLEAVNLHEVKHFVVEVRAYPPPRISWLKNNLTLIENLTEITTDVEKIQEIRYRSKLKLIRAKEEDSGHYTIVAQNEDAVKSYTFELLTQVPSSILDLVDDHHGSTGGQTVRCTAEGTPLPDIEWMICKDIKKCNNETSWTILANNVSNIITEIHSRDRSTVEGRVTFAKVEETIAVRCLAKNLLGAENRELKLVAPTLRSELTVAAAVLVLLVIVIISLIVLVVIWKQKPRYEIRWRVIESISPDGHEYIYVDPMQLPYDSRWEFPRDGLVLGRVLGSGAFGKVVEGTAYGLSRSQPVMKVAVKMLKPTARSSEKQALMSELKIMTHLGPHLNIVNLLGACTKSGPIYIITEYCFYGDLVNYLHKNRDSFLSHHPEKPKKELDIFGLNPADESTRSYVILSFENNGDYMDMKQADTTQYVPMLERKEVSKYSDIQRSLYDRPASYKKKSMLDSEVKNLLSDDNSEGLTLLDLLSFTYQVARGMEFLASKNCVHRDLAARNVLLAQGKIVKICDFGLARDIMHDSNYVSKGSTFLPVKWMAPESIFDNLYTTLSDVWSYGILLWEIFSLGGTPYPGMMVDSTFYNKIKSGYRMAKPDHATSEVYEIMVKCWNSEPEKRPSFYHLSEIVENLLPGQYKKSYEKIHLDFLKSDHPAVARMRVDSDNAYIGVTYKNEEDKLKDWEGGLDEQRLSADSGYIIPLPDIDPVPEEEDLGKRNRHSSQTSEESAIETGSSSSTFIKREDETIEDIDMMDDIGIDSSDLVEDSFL", "procedure": "(§1) To test the potential kinase inhibitory activity of compound 15c, initial single dose testing was performed at 10 μM on a panel of kinases and their inhibition % were determined.\n(§2) The FGFR, VEGFR-2 and RET tyrosine kinase assays were carried out at Thermo Fischer Scientific, USA (www.thermofischer.com/selectscreen). (For further details see Additional file 1; S3: In vitro biological activity).\n(§3) The FGFR, VEGFR-2 and RET tyrosine kinase assays were performed at Thermo Fischer Scientific, USA (www.thermofischer.com/selectscreen). The assay was performed to evaluate the inhibitory activity of the designed compound applying the Z'-LYTE biochemical assay employing a fluorescence-based, coupled-enzyme format based on the differential sensitivity of phosphorylate and non-phosphorylate peptides to the proteolytic cleavage. The peptide substrate is characterized with two fluorophores, one at each end, that make up a FRET pair ^9.\n(§4) The Z´-LYTE biochemical assay employs a fluorescence-based, coupled-enzyme format and is based on the differential sensitivity of phosphorylated and non-phosphorylated peptides to proteolytic cleavage. The peptide substrate is labeled with two fluorophores—one at each end—that make up a FRET pair. In the primary reaction, the kinase transfers the gamma-phosphate of ATP to a single tyrosine, serine or threonine residue in a synthetic FRET-peptide. In the secondary reaction, a site-specific protease recognizes and cleaves non-phosphorylated FRET-peptides. Phosphorylation of FRET-peptides suppresses cleavage by the Development Reagent. Cleavage disrupts FRET between the donor (i.e., coumarin) and acceptor (i.e., fluorescein) fluorophores on the FRET-peptide, whereas uncleaved, phosphorylated FRET-peptides maintain FRET. A ratiometric method, which calculates the ratio (the Emission Ratio) of donor emission to acceptor emission after excitation of the donor fluorophore at 400 nm, is used to quantitate reaction progress, as shown in the equation below. A significant benefit of this ratiometric method for quantitating reaction progress is the elimination of wellto-well variations in FRET-peptide concentration and signal intensities. […]. Both cleaved and uncleaved FRET-peptides contribute to the fluorescence signals and therefore to the Emission Ratio. The extent of phosphorylation of the FRET-peptide can be calculated from the Emission Ratio. The Emission Ratio will remain low if the FRET-peptide is phosphorylated (i.e., no kinase inhibition) and will be high if the FRET-peptide is non-phosphorylated (i.e., kinase inhibition).\n(§5) Test Compounds the Test Compounds are screened in 1% DMSO (final) in the well. For 10 point titrations, 3-fold serial dilutions are conducted from the starting concentration of the customer’s choosing. Peptide/Kinase Mixtures All Peptide/Kinase Mixtures are diluted to a 2X working concentration in the appropriate Kinase Buffer (see section Kinase Specific Assay Conditions for a complete description). ATP Solution All ATP Solutions are diluted to a 4X working concentration in Kinase Buffer (50 mM HEPES pH 7.5, 0.01% BRIJ-35, 10 mM MgCl2, 1 mM EGTA). ATP Km apparent is previously determined using a Z´-LYTE assay."}, "[2]": {"target": "T2, VEGFR 1(FLT1) (Homo sapiens, UniProt P17948)", "T2 construct": "purchased Thermo Fischer Scientific (SelectScreen service)", "T2 sequence (P17948 27-1338)": "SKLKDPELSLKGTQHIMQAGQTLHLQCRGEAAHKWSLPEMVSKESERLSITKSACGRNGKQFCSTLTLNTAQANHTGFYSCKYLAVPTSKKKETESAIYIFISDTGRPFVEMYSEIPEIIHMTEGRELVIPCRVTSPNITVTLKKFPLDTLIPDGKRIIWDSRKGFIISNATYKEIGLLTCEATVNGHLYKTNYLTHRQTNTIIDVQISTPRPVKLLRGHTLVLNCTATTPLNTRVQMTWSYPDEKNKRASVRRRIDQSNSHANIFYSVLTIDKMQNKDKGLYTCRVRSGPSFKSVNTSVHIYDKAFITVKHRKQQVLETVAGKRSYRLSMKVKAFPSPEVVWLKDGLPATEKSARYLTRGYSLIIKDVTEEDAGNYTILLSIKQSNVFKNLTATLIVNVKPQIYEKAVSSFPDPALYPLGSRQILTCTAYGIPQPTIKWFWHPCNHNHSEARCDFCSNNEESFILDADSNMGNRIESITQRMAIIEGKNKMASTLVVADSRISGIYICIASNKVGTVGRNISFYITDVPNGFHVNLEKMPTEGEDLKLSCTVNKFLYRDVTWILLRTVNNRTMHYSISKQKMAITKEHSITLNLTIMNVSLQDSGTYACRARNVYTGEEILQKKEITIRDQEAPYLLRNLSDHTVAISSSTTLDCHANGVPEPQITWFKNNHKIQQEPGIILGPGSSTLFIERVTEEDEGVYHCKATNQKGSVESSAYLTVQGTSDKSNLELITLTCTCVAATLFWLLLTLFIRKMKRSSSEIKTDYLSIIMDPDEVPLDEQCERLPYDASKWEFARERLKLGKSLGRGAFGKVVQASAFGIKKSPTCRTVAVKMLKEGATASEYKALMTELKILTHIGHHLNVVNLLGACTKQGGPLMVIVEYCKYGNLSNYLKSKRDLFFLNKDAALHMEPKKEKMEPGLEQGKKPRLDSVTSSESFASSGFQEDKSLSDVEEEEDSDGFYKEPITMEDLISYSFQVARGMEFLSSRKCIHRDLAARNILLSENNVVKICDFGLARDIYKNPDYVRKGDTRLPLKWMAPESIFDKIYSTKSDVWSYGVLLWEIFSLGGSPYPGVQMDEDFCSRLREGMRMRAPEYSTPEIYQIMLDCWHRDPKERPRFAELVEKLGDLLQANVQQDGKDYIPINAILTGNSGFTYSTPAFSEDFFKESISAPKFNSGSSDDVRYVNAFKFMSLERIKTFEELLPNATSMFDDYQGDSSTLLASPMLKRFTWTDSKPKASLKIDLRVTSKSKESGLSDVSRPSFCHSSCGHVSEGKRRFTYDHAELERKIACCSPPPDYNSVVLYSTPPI", "procedure": "as §1, §2, §3, §4, §5"}, "[3]": {"target": "T3, BRAF (Homo sapiens, UniProt P15056)", "T3 construct": "purchased Thermo Fischer Scientific (SelectScreen service)", "T3 sequence (P15056 whole entry)": "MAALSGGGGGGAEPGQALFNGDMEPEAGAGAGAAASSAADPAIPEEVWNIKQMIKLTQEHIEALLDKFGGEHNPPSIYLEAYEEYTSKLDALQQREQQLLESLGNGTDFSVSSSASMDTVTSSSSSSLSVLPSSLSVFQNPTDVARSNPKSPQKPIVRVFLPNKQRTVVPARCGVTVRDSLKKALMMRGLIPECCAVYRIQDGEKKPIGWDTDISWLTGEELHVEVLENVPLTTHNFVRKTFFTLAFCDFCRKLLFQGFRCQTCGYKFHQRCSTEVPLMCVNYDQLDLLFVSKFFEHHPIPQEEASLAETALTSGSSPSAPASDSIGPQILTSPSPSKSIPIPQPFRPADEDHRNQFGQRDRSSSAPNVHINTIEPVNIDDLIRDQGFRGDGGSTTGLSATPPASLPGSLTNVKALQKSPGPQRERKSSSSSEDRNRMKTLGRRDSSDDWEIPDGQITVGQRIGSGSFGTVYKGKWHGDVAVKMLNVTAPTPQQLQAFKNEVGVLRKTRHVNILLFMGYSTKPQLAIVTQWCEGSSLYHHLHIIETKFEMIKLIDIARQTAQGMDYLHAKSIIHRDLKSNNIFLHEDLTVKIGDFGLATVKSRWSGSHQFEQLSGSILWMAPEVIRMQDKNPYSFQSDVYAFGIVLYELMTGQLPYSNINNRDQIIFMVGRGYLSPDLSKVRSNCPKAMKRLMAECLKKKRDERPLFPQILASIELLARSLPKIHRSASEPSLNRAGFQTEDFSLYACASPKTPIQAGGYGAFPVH", "procedure": "as §1, §2, §3, §4, §5"}, "[4]": {"target": "T4, Kit (Homo sapiens, UniProt P10721)", "T4 construct": "purchased Thermo Fischer Scientific (SelectScreen service)", "T4 sequence (P10721 26-976)": "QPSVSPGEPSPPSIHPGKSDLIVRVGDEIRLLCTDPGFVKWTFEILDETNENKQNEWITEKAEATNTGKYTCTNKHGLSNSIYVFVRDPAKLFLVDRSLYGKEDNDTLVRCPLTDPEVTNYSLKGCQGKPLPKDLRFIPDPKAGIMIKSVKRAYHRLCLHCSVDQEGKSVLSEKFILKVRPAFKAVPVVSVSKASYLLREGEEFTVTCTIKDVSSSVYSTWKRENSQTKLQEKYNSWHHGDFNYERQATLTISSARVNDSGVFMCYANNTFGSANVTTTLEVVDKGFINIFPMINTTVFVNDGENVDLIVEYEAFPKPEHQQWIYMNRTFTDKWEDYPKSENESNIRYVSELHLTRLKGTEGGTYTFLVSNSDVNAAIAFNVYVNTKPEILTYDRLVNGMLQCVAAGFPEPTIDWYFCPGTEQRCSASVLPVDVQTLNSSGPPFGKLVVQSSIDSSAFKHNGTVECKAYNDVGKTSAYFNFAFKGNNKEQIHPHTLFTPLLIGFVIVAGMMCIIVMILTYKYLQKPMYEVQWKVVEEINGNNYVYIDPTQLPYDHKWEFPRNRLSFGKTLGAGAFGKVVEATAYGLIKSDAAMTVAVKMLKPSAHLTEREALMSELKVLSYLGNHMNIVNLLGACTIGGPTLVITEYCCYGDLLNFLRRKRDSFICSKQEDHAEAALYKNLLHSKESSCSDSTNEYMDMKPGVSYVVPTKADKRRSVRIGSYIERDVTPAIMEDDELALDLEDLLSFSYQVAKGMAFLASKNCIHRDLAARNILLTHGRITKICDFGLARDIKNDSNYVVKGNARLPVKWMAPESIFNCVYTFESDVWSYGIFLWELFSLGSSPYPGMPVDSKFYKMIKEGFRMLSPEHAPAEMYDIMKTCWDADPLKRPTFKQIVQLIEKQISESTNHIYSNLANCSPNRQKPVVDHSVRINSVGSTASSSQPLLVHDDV", "procedure": "as §1, §2, §3, §4, §5"}},
  "data": [
    {"compound": "O=C(Nc1ccc(NC=C2C(=O)Nc3ccccc32)cc1)Nc1nccs1", "note": "[Compound 15c, 1-{4-[((2-Oxoindolin-3-ylidene)methyl)amino]phenyl}-3-(thiazol-2-yl)urea]", "values": [
      {"measurement": "inhibition at 10 µM", "setting": "[1]", "result": 59, "unit": "%"},
      {"measurement": "inhibition at 10 µM", "setting": "[2]", "result": 40, "unit": "%"},
      {"measurement": "inhibition at 10 µM", "setting": "[3]", "result": 69, "unit": "%"},
      {"measurement": "inhibition at 10 µM", "setting": "[4]", "result": 31, "unit": "%"}
    ]}
  ]
}
